Patent US20250255866A1, “USES OF FATTY ACID AMIDE HYDROLASE INHIBITORS IN TREATMENT OF TRAUMA RELATED PSYCHIATRIC DISORDERS” (Neuritek Therapeutics Ltd., priority 2020, published 2025)

Legend:
[1] = system: adults with PTSD; assay: Exploratory behavioral analyses 1: effect relative to placebo on PTSD symptoms; format: in vivo, human
Method: (a). To evaluate the effect of daily 450 mg of 3-{[5-(2-Fluorophenyl)pyridin-2-yl]oxy}-N-(pyridazin-3-yl)azetidine-1-carboxamide relative to placebo in mitigating PTSD symptoms in adults with PTSD. Patient will be receiving a 450 mg dose of the study agent.
(b). To evaluate the effect of 450 mg of the study drug relative to placebo in mitigating PTSD symptoms that comprise a contemporary, five-factor phenotypic model of this disorder, as well as secondary “intermediate phenotype” measures of anxiety sensitivity and somatic anxiety.

[2] = system: FAAH; assay: Changes in plasma fatty acid amide (FAA) levels in response to the FAAH inhibitor; format: in vivo, human; conditions: 450 mg/day, plasma drug level 200 nm/ml to about 600 ng/ml, predicted maximal change
Method: In other embodiments, upon achieving trough steady state plasma, plasma FAA levels will be minimal. Conversely, at the 450 mg/day dose, changes in plasma FAA levels in response to 3-{[5-(2-Fluorophenyl)pyridin-2-yl]oxy}-N-(pyridazin-3-yl)azetidine-1-carboxamide ranging from 200 nm/ml to about 600 ng/ml are predicted to be maximal; in the order of 3, 4, 8 and 5 ng/mL for AEA, LEA, OEA and PEA, respectively.

Compound: O=C(Nc1cccnn1)N1CC(Oc2ccc(-c3ccccc3F)cn2)C1 [3-{[5-(2-Fluorophenyl)pyridin-2-yl]oxy}-N-(pyridazin-3-yl)azetidine-1-carboxamide]
- PTSD symptoms of the five-factor phenotypic model, anxiety sensitivity and somatic anxiety, relative to placebo ([1]; 450 mg daily dose): most pronounced effect on reducing anxious arousal
- overall severity of PTSD symptoms relative to placebo ([1]; daily 450 mg): reduction in overall severity of PTSD symptoms
- change in plasma FAA level: AEA [2]: ~3 ng/mL
- change in plasma FAA level: LEA [2]: ~4 ng/mL
- change in plasma FAA level: OEA [2]: ~8 ng/mL
- change in plasma FAA level: PEA [2]: ~5 ng/mL
